Consider four compounds from publication PMC5753767 (Bioorganic & medicinal chemistry letters, 2017).

Data set [1] concerns Caco-2 cancer cell line. The conditions noted are these: cited from earlier work.
The subject of data set [2] is HT-29 cancer cell line. The conditions noted are these: cited from earlier work.
For data set [3], the system named is P. falciparum Dd2. It is filed as cell-based, Plasmodium falciparum. The conditions noted are these: chloroquine-resistant Dd2 strain of P. falciparum.
Data set [4] concerns A2780 ovarian cells. The experiment in a line: Antiproliferative activity against A2780 ovarian cells. It is filed as cell-based.

Entries after “also recorded” stand apart in the source; their conditions may differ.

What is called IC50 is the point on the concentration scale where inhibition reaches its midpoint. Consider `CC(=O)O[C@@H]1CC=C2CCN3Cc4cc5c(cc4[C@H]1[C@@H]23)OCO5` [Compound 5, acetylcaranine], for which the IC50 in data set [1] (read-out: Cytotoxicity IC50 Caco-2, Caco-2 cancer cell line) was 29.5 µM; in data set [2] (read-out: Cytotoxicity IC50 HT-29, HT-29 cancer cell line), 19.2 µM. Also, the “Antiplasmodial activity (in words)” value in data set [3] is listed as “strong antiplasmodial activity; also recorded: moderate to good antiplasmodial activity”. For the same compound, the “Activity against human A2780 cells (in words)” value in data set [4] was “lack of activity”.
On to `COc1c2c(cc3c1OCO3)[C@]13C=C[C@H](OC)C[C@H]1[N@](C2)C[C@H]3O` [Compound 4, ambelline], for which, in data set [3], the “Antiplasmodial activity (in words)” value is “moderate to good antiplasmodial activity”. Also, the “Activity against human A2780 cells (in words)” value in data set [4] is “lack of activity”.
`COC1=CC(=O)[C@@]23CCN(Cc4c2cc2c(c4OC)OCO2)[C@@H]3C1` [Compound 2, distichamine]: the “Antiplasmodial activity (in words)” value in data set [3] is given as “little inhibitory activity”.
For the compound `COc1c2c(cc3c1OCO3)[C@]13C=C[C@H](OC)C[C@H]1[N@](C2)C[C@H]3OC(C)=O` [Compound 3, 11-O-acetylambelline], the “Cytotoxicity IC50 Caco-2” value in data set [1] was “inactive”. The “Cytotoxicity IC50 HT-29” value in data set [2] is “inactive”.
